Data reported in patent publication US11696913B2, “Prolonged ectoparasite-controlling agent for animal” (MITSUI CHEMICALS AGRO, INC., priority 2017, dated 2023).

How the values were obtained:
[1] = system: Amblyomma americanum; test: In vitro contact test with hard ticks (Amblyomma americanum nymphs); settings: read-out: acaricidal activity; for pest or weed control at 0.04 µg/cm2, 0.04 µg/cm2: dose 0.04 μg/cm^2, 48 h; for pest or weed control at 0.2 µg/cm2, 0.2 µg/cm2: dose 0.2 μg/cm^2, 48 h; for pest or weed control at 1 µg/cm2, 1 µg/cm2: dose 1 μg/cm^2, 48 h
Outline: (§1)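 Acaricidal activity = % ticks dead or moribund after 48 h contact with acetone-deposited compound on vial walls (e.g., 900 ppm solution → 5 μg/cm^2). Ambient conditions for R. sanguineus, 21° C./85% rel. hum. for other species; heat challenge at 45-50° C. separated climbers from moribund ticks.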

[2] = system: Laodelphax striatellus; test: Insecticidal testing against small brown planthopper; format: in vivo; settings: 144 h, concentration 100 ppm, sprayed rice seedlings, after 6 days, read-out: pesticidal rate
Outline: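 Acetone solution of compound at a set concentration sprayed onto rice seedlings, air-dried, then exposed to 10 planthoppers (one group). Held at 25° C; survival rate recorded after 6 days.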

[3] = system: Ctenocephalides felis; test: Ctenocephalides felis in-vitro feeding test with fleas (CTECFE oral); settings: 48 hours, read-out: insecticidal feeding activity; for pest or weed control at 0.032 ppm: dose 0.032 ppm in citrated cattle blood; for pest or weed control at 0.16 ppm: dose 0.16 ppm in citrated cattle blood; for pest or weed control at 0.8 ppm: dose 0.8 ppm in citrated cattle blood; for pest or weed control at 4 ppm: dose 4 ppm in citrated cattle blood
Outline: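 Scored as percent fleas killed (0–100%) 48 hours after feeding began. Compound, dissolved in DMSO and diluted into citrated cattle blood, was offered via a parafilm membrane to roughly 20 adult male and female C. felis at about 37° C.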

[4] = system: Ctenocephalides felis; test: In vitro contact test with fleas; settings: read-out: insecticidal activity; for pest or weed control at 0.04 µg/cm2, 0.04 µg/cm2: dose 0.04 μg/cm^2, dead or moribund fleas after 48 h; for pest or weed control at 0.2 µg/cm2, 0.2 µg/cm2: dose 0.2 μg/cm^2, dead or moribund fleas after 48 h; for pest or weed control at 1 µg/cm2, 1 µg/cm2: dose 1 μg/cm^2, dead or moribund fleas after 48 h
Outline: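 Activity is the percentage of fleas dead or moribund at 48 h, judged by immobility or uncoordinated movement after tapping. Tubes were coated by evaporating acetone solutions (900 ppm gives 5 μg/cm^2), then held 5-10 adult fleas of both sexes at room temperature and ambient humidity.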

[5] = system: Ixodes ricinus; test: In vitro contact test with adult hard ticks (Ixodes ricinus); settings: read-out: acaricidal activity; for pest or weed control at 0.2 µg/cm2, 0.2 µg/cm2: dose 0.2 μg/cm^2, 48 h; for pest or weed control at 1 µg/cm2, 1 µg/cm2: dose 1 μg/cm^2, 48 h; for pest or weed control at 5 µg/cm2, 5 µg/cm2: dose 5 μg/cm^2, 48 h
Outline: as §1

[6] = system: Plutella xylostella; test: Insecticidal testing against diamondback moth; format: in vivo; settings: foliar, 144 h, concentration 100 ppm, cabbage leaf dip, third-stage larvae, after 6 days, read-out: pesticidal rate
Source text: Insecticidal Testing Against Diamondback Moth (Plutella xylostella)

[7] = system: Rhipicephalus (Boophilus) microplus; test: In vitro injection test with Rhipicephalus (Boophilus) microplus (BOOPMI Inj); settings: 168 h, laid fertile eggs after 7 days, read-out: acaricidal activity; for pest or weed control at 32 ng: dose 0.032 μg/animal injected; for pest or weed control at 0.00016 mg: dose 0.16 μg/animal injected; for pest or weed control at 0.0008 mg: dose 0.8 μg/animal injected
Outline: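 Five engorged adult females each get a 1 μl abdominal injection of compound dissolved and diluted in DMSO. Kept 7 days at 28° C./85% rel. hum.; percent activity rates egg laying and egg fertility (0% all fertile, 100% none laid or infertile).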

[8] = system: Dermacentor variabilis; test: In vitro contact test with adult hard ticks (Dermacentor variabilis); settings: read-out: acaricidal activity; for pest or weed control at 0.04 µg/cm2, 0.04 µg/cm2: dose 0.04 μg/cm^2, 48 h; for pest or weed control at 0.2 µg/cm2, 0.2 µg/cm2: dose 0.2 μg/cm^2, 48 h; for pest or weed control at 1 µg/cm2, 1 µg/cm2: dose 1 μg/cm^2, 48 h
Outline: as §1

[9] = system: Rhipicephalus sanguineus; test: In vitro contact test with adult hard ticks (Rhipicephalus sanguineus); settings: read-out: acaricidal activity; for pest or weed control at 0.04 µg/cm2, 0.04 µg/cm2: dose 0.04 μg/cm^2, 48 h; for pest or weed control at 0.2 µg/cm2, 0.2 µg/cm2: dose 0.2 μg/cm^2, 48 h; for pest or weed control at 1 µg/cm2, 1 µg/cm2: dose 1 μg/cm^2, 48 h
Outline: as §1

[10] = system: Spodoptera litura; test: Insecticidal testing against common cutworm; format: in vivo; settings: foliar, 144 h, concentration 100 ppm, cabbage leaf dip, second-stage larvae, after 6 days, read-out: pesticidal rate
Source text: Insecticidal Testing Against Common Cutworm (Spodoptera litura)

Structure (SMILES)	pest or weed control at 0.2 µg/cm2, 0.2 µg/cm2 [1] [%]	pest or weed control at 1 µg/cm2, 1 µg/cm2 [1] [%]	pest or weed control at 100 ppm [2] [%]	pest or weed control at 0.16 ppm [3] [%]	pest or weed control at 0.8 ppm [3] [%]	pest or weed control at 4 ppm [3] [%]	pest or weed control at 0.04 µg/cm2, 0.04 µg/cm2 [4] [%]	pest or weed control at 0.2 µg/cm2, 0.2 µg/cm2 [4] [%]	pest or weed control at 1 µg/cm2, 1 µg/cm2 [4] [%]	pest or weed control at 0.2 µg/cm2, 0.2 µg/cm2 [5] [%]	pest or weed control at 1 µg/cm2, 1 µg/cm2 [5] [%]	pest or weed control at 5 µg/cm2, 5 µg/cm2 [5] [%]	pest or weed control at 100 ppm [6] [%]	pest or weed control at 32 ng [7] [%]	pest or weed control at 0.00016 mg [7] [%]	pest or weed control at 0.0008 mg [7] [%]	pest or weed control at 0.04 µg/cm2, 0.04 µg/cm2 [8] [%]	pest or weed control at 0.2 µg/cm2, 0.2 µg/cm2 [9] [%]	pest or weed control at 1 µg/cm2, 1 µg/cm2 [9] [%]	pest or weed control at 100 ppm [10] [%]	other results
O=C(Nc1cccc(C(=O)Nc2c(Br)cc(C(F)(C(F)(F)F)C(F)(F)F)cc2OC(F)F)c1F)c1ccc(F)cc1 [Compound 91]	90	90	≥ 70	95	95	95	95	95	95	90	90	90	≥ 70	100	100	100	90	90	90	≥ 70	pest or weed control at 0.04 µg/cm2, 0.04 µg/cm2 [1]: 90%; pest or weed control at 0.032 ppm [3]: 95%; pest or weed control at 0.2 µg/cm2, 0.2 µg/cm2 [8]: 90%; pest or weed control at 1 µg/cm2, 1 µg/cm2 [8]: 90%; pest or weed control at 0.04 µg/cm2, 0.04 µg/cm2 [9]: 90%
O=C(Nc1cccc(C(=O)Nc2c(I)cc(C(F)(C(F)(F)F)C(F)(F)F)cc2OC(F)F)c1F)c1ccc(F)cc1 [Compound 92]	90	90	≥ 70	95	95	95	95	95	95	90	90	90	≥ 70	100	100	100	90	90	90	≥ 70	pest or weed control at 0.032 ppm [3]: 95%; pest or weed control at 6.4 ng ([7]; dose 0.0064 μg/animal injected): 100%; pest or weed control at 0.2 µg/cm2, 0.2 µg/cm2 [8]: 90%; pest or weed control at 0.04 µg/cm2, 0.04 µg/cm2 [9]: 90%
O=C(Nc1cccc(C(=O)Nc2c(Br)cc(C(F)(C(F)(F)F)C(F)(F)C(F)(F)F)cc2OC(F)(F)F)c1F)c1ccc(F)cc1 (stereo not shown) [Compound 95]	90	90	≥ 70	95	95	95		95	95	90	90	90	≥ 70	100	100	100		90	90	≥ 70	pest or weed control at 0.04 µg/cm2, 0.04 µg/cm2 [1]: 90%; pest or weed control at 1 µg/cm2, 1 µg/cm2 [8]: 90%; pest or weed control at 0.04 µg/cm2, 0.04 µg/cm2 [9]: 90%
O=C(Nc1cccc(C(=O)Nc2c(I)cc(C(F)(C(F)(F)F)C(F)(F)F)cc2OC(F)(F)F)c1F)c1ccc(F)c(F)c1 [Compound 97]	90	90	≥ 70	95	95	95	95	95	95	90	90	90	≥ 70		100	100	90	90	90	≥ 70	pest or weed control at 0.2 µg/cm2, 0.2 µg/cm2 [8]: 90%; pest or weed control at 1 µg/cm2, 1 µg/cm2 [8]: 90%
